Assay results: PubChem BioAssay AID1218 (NMMLSC, 2008)
Records with an inconclusive call do not appear. Activity calls are given as the source filed them.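 The calls were made as follows: active = score of 100, meaning the red fluorescent reporter moved fully into the nucleus as with estrogen, or estrogen's effect was fully blocked; inactive = score of 0 or 50, meaning partial or no effect.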

Each molecule was assayed against Estrogen receptor beta (Homo sapiens) (UniProt Q92731) (assay: estrogen receptor beta signaling via PH-RFP translocation – imaging, Cos7 cells, ERbeta-GFP, PH-RFP reporter, orthogonal assay for ERbeta ligand project, confirmation (AID 1218)). Conditions: PIP3 translocation imaging, at 10 µM, active compounds read high.
Chain of Estrogen receptor beta (Homo sapiens) (Q92731 whole entry, looked up): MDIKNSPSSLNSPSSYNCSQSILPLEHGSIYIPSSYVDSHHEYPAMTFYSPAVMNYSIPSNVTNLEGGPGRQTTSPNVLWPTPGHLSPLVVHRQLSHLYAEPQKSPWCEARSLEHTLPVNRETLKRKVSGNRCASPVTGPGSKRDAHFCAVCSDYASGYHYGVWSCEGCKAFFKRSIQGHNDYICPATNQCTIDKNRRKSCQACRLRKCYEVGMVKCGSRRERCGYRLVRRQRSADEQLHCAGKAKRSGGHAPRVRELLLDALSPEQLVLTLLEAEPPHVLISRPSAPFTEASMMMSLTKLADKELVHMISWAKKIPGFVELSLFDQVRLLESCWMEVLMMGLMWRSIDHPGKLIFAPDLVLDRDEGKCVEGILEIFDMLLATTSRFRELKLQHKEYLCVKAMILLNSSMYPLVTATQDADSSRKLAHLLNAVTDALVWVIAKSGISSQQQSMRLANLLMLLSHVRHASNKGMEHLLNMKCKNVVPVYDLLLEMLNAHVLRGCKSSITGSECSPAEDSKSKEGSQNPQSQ

How did the response score turn out when O=C(O)c1cc(Cl)c2c(c1)[C@@H]1C=CC[C@@H]1[C@H](c1ccc(S(=O)(=O)N3CCOCC3)cc1)N2 was run?
Its response score is 50 (inactive).

With Nc1ncnc2c1ncn2C1CCC(CO)C(O)C1 (stereo not drawn) as the molecule, how does the response score read?
Its response score is 50 (inactive).

Cc1cc(C)c2c(c1)[C@@H]1C=CC[C@@H]1[C@H](c1ccc(S(=O)(=O)N3CCOCC3)cc1)N2 was tested. Which response score did it give?
The response score was 100.

Which response score does the source give for O=C(O)c1ccc2c(c1)C1C(Cl)C(Sc3ccccc3[N+](=O)[O-])CC1C(c1cccc([N+](=O)[O-])c1)N2 (stereo not drawn) here?
Its response score is 0 (inactive).

For COc1ccccc1N1CCN(C(=O)c2ccc3nc(-c4ccco4)c(-c4ccco4)nc3c2)CC1, which response score is on record?
Its response score is 100.

Which response score does the source give for Brc1cc2c(cc1C1Nc3ccccc3C3C=CCC31)OCO2 (stereo not drawn) here?
The response score was 0 (inactive).

With COc1cccc(NS(=O)(=O)c2ccc3c(c2)C2C=CCC2C(c2ccc(C(=O)O)cc2)N3)c1 (stereo not drawn) as the molecule, how does the response score read?
Its response score is 50 (inactive).

Which response score does the source give for Cc1cc(-c2nn3c(-c4ccccc4)nnc3s2)c2ccccc2n1 here?
The response score was 100.
